The numbers were not newly measured in US20070270436A1, “NOVEL AMINO- AND IMINO-ALKYLPIPERAZINES” (Recordati Ireland Limited, priority 2006, published 2007), which cites them from elsewhere.

In data set [1] the test system is 5-HT1A agonist discriminative stimulus cue. Conditions: 0.01-1 mg/kg i.m.; cited from earlier work.
Data set [2] concerns release of glutamate and acetylcholine. Conditions: dentate gyrus of the hippocampus; cited from earlier work.
The subject of a further data set is marmosets. Conditions: 2 mg/kg i.m., visual spatial discrimination; cited from earlier work.
A further data set has as its system aged rhesus monkeys. Conditions: 1 mg/kg p.o.; cited from earlier work.

Structures are written as SMILES.

For the compound `C[C@H](CN(C(=O)c1ccc(C#N)cc1)c1ccccn1)N1CCN(c2cccc3c2OCCO3)CC1` [lecozotan], in data set [1], the “blockade of the 5-HT1A agonist discriminative stimulus cue” value is listed as “dose-related blockade” and the “substitution for 8-OH-DPAT” value was “did not substitute”. For the same compound, the “potassium chloride-stimulated release of glutamate and acetylcholine” value in data set [2] is “significantly potentiated”. In addition, the “learning deficits induced by MK-801 and by cholinergic lesions of the hippocampus” value in the data set on marmosets is on record as “reversed”. In addition, the task performance efficiency result in the data set with aged rhesus monkeys is on record as “significant improvement”.
